Measured values reported in DBAASP.
In brackets after ≈: the same amount, converted by molar mass. Several values for one entry are separate records, joined by “and”; a condition that tells them apart may be missing. Identical values can stand only once. One block for each compound: values may come before it.

Experiments:
Experiment in all cases: ≥ marks a high value that may be exact or a test limit, other limits are often not marked, values filed in µg/mL are converted to µM
[1] = tested on: Salmonella enterica subsp. enterica serovar Enteritidis MH91989
[2] = tested on: Salmonella enterica subsp. enterica serovar Newport
[3] = tested on: Salmonella typhimurium SL1344
[4] = tested on: Escherichia coli JW0368 ΔsbmA
[5] = tested on: Salmonella enterica subsp. enterica serovar Infantis
[6] = tested on: Escherichia coli JJ2489
[7] = tested on: Escherichia coli
[8] = tested on: Escherichia coli J2210
[9] = tested on: Escherichia coli JW0013
[10] = tested on: Salmonella enterica serovar Tennessee
[11] = tested on: Escherichia coli MC1041
[12] = tested on: Escherichia coli JW2778 ΔygdD
[13] = tested on: Klebsiella pneumoniae Oschner KP-1
[14] = tested on: Klebsiella aerogenes St. L P63
[15] = tested on: Escherichia coli ATCC 25922
[16] = tested on: Enterobacter cloacae BB2012-181
[17] = tested on: Pseudomonas aeruginosa BB2013-100
[18] = tested on: Pseudomonas aeruginosa ATCC 27853
[19] = tested on: Klebsiella pneumoniae BB2009-209
[20] = tested on: Escherichia coli ARLG-1012
[21] = tested on: Acinetobacter baumannii Josh 28
[22] = tested on: Acinetobacter baumannii Josh 230
[23] = tested on: Pseudomonas aeruginosa J4228
[24] = tested on: Enterobacter cloacae BB2013-32
[25] = tested on: Enterobacter cloacae St. L P23
[26] = tested on: Escherichia coli BB2013-30
[27] = tested on: Enterobacter asburiae St. L P23
[28] = tested on: Klebsiella pneumoniae J3702
[29] = tested on: Escherichia coli BW25113
[30] = tested on: Escherichia coli JW55034
[31] = tested on: Acinetobacter baumannii b-03
[32] = tested on: Staphylococcus epidermidis
[33] = tested on: Acinetobacter baumannii b-01
[34] = tested on: Bacillus pumilus CMCC 63202
[35] = tested on: Acinetobacter baumannii b-04
[36] = tested on: Pseudomonas aeruginosa
[37] = tested on: Escherichia coli ATCC 8099
[38] = tested on: Staphylococcus aureus
[39] = tested on: Salmonella enterica subsp. enterica serovar Paratyphi B CMCC 50094
[40] = tested on: Micrococcus sp. S1.634
[41] = tested on: Klebsiella pneumoniae CMCC 46117
[42] = tested on: Pseudomonas aeruginosa CMCC 10104
[43] = tested on: Klebsiella pneumoniae
[44] = tested on: Acinetobacter baumannii b-02
[45] = tested on: Micrococcus luteus CMCC 28001
[46] = tested on: Bacillus subtilis DB430
[47] = tested on: Staphylococcus aureus CMCC 26003

MIC [1]: 0.031 µM (≈ 0.0658 µg/mL)
MIC [2]: 0.017 µM (≈ 0.0361 µg/mL)
MIC [3]: 0.034 µM (≈ 0.0722 µg/mL)
MIC [4]: 0.096 µM (≈ 0.204 µg/mL)
MIC [5]: 0.024 µM (≈ 0.051 µg/mL)
MIC [6]: 0.034 µM (≈ 0.0722 µg/mL)
MIC [7]: 0.048 µM (≈ 0.102 µg/mL)
MIC [8]: 0.034 µM (≈ 0.0722 µg/mL)
MIC [9]: 0.012 µM (≈ 0.0255 µg/mL)
MIC [10]: 0.024 µM (≈ 0.051 µg/mL)
MIC [11]: 0.024 µM (≈ 0.051 µg/mL)
MIC [12]: 0.024 µM (≈ 0.051 µg/mL)
Compound: CC(C)C[C@H](NC(=O)[C@H](CCCN=C(N)N)NC(=O)[C@@H]1CCCN1C(=O)[C@H](Cc1cnc[nH]1)NC(=O)[C@@H]1CCCN1C(=O)[C@@H]1CCCN1C(=O)[C@H](CCCN=C(N)N)NC(=O)[C@@H]1CCCN1C(=O)[C@H](CCC(N)=O)NC(=O)[C@@H]1CCCN1C(=O)[C@H](CCCN=C(N)N)NC(=O)[C@H](Cc1ccc(O)cc1)NC(=O)[C@@H](NC(=O)[C@@H]1CCCN1C(=O)[C@H](CCCCN)NC(=O)[C@H](CC(N)=O)NC(=O)[C@H](CC(N)=O)NC(=O)CN)C(C)C)C(=O)O [GNNKPVYRPQPRPPHPRL]

MIC [13]: 21.8 µM (≈ 32 µg/mL)
MIC [14]: 10.9 µM (≈ 16 µg/mL)
MIC [15]: 12 µM and 24.1 µM
MIC [16]: 10.9 µM (≈ 16 µg/mL)
MIC [17]: 21.8 µM (≈ 32 µg/mL)
MIC [18]: 5.44 µM (≈ 7.99 µg/mL)
MIC [19]: 21.8 µM (≈ 32 µg/mL)
MIC [20]: 2.72 µM (≈ 4 µg/mL)
MIC [21]: 2.72 µM (≈ 4 µg/mL)
MIC [22]: 10.9 µM (≈ 16 µg/mL)
MIC [23]: 10.9 µM (≈ 16 µg/mL)
MIC [24]: 10.9 µM (≈ 16 µg/mL)
MIC [25]: 21.8 µM (≈ 32 µg/mL)
MIC [26]: 5.44 µM (≈ 7.99 µg/mL)
MIC [27]: 21.8 µM (≈ 32 µg/mL)
MIC [28]: 10.9 µM (≈ 16 µg/mL)
MIC [29]: 2.72 µM (≈ 4 µg/mL)
MIC [30]: 2.72 µM (≈ 4 µg/mL)
Compound: CC[C@H](C)[C@H](NC(=O)[C@H](CCCCN)NC(=O)[C@H](CCCCN)NC(=O)[C@@H](NC(=O)[C@H](C)NC(=O)[C@H](CCCCN)NC(=O)[C@@H](NC(=O)[C@@H](NC(=O)[C@H](CC(C)C)NC(=O)[C@H](CCCCN)NC(=O)[C@H](C)NC(=O)[C@H](Cc1c[nH]c2ccccc12)NC(=O)CN)[C@@H](C)CC)[C@@H](C)O)[C@@H](C)CC)C(N)=O [GWAKLITKAIKKI]

MIC [31]: 1.3 µM (≈ 3.25 µg/mL)
MIC [32]: 0.802 µM (≈ 2 µg/mL)
MIC [33]: 0.321 µM (≈ 0.8 µg/mL)
MIC [34]: 0.201 µM (≈ 0.5 µg/mL)
MIC [35]: 0.641 µM (≈ 1.6 µg/mL)
MIC [36]: 0.641 µM and 1.13 µM
MIC [37]: 0.201 µM (≈ 0.5 µg/mL)
MIC [38]: 0.401 µM (≈ 1 µg/mL)
MIC [39]: 0.802 µM (≈ 2 µg/mL)
MIC [40]: 0.401 µM (≈ 1 µg/mL)
MIC [41]: 0.802 µM (≈ 2 µg/mL)
MIC [42]: 1.6 µM (≈ 4 µg/mL)
MIC [43]: 0.567 µM (≈ 1.41 µg/mL)
MIC [44]: 1.25 µM (≈ 3.12 µg/mL)
MIC [45]: 0.802 µM (≈ 2 µg/mL)
MIC [46]: 0.802 µM (≈ 2 µg/mL)
MIC [47]: 0.201 µM (≈ 0.5 µg/mL)
Compound: CC[C@H](C)[C@H](NC(=O)[C@H](Cc1ccccc1)NC(=O)[C@H](CO)NC(=O)[C@H](CCCCN)NC(=O)[C@H](Cc1c[nH]c2ccccc12)NC(=O)[C@@H](N)CCCCN)C(=O)N[C@@H](CCCCN)C(=O)N[C@@H](CCCCN)C(=O)N[C@@H](CC(C)C)C(=O)N[C@H](C(=O)N[C@@H](CCCCN)C(=O)N[C@@H](CCCCN)C(=O)N[C@@H](Cc1ccccc1)C(=O)N[C@@H](CC(C)C)C(=O)N[C@@H](Cc1cnc[nH]1)C(=O)N[C@@H](CO)C(=O)N[C@@H](C)C(=O)N[C@@H](CCCCN)C(=O)N[C@@H](CCCCN)C(=O)N[C@@H](Cc1ccccc1)C(N)=O)[C@@H](C)O [KWKSFIKKLTKKFLHSAKKF]
